In BindingDB's records for patent WO2025064535 (Deep Apple Therapeutics, 2025):

Key:
[1] = biological target: T1, Mas-related G-protein coupled receptor member X2 (Homo sapiens, UniProt Q96LB1); assay: MRGPRX2 Activity Assay
T1 sequence (Q96LB1 whole entry): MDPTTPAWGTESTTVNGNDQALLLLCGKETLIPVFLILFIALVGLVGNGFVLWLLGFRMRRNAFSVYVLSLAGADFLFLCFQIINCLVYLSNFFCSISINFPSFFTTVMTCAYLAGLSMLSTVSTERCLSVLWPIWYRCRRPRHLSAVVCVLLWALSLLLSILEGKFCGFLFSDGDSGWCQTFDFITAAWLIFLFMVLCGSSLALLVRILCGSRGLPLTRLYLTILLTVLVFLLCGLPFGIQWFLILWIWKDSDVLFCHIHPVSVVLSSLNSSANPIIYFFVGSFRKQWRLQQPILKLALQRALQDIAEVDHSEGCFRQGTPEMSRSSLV
Experimental: FlpIn TRex-MRGPRX2-HEK293 cells (herein TRex-MRPGRX2-HEK) stably transfected to express human MRGPRX2 were maintained at 37 °C with 5% CO2 and grown in DMEM supplemented with 10% FBS, 1% L-Glutamate, 1% penicillin/streptomycin, 100ug/mL Hygromycin B, and 15 µg/mL Blasticidin. GOI (MRGPRX2) expression was induced with 100ng/mL of Doxycycline 18-24 hours prior to experiment, in flask. On the day of experiment, cells were lifted with TripLE Express and seeded in 384-well white walled opaque bottomed, assay plates, at 8,000 cells per well in 5 µL freshly made assay buffer (HBSS, 20 mM HEPES, 0.1% BSA and 10 mM LiCl). Compounds solubilized in 100% DMSO at 30 mM were serially diluted (1:4) first in 100% DMSO, and an intermediate plate of assay buffer was used to establish a final top concentration of 30 µM (in assay plate). Final DMSO concentration was kept constant at 1% across assay plates. Cortistatin-14, at 30 mM stock concentration was solubilized in HBSS + 0.1% BSA, stored at -20°C in 5 µL aliquots and discarded after one freeze-thaw cycle. […] Antagonist equilibrium was established with 30 minutes preincubation, followed by no wash, direct addition, and stimulation of agonist for 1 hour at 37 °C / 5% CO2. IP-1 standards and HTRF detection reagents were added according to the IP-one Gq kit protocol purchased from CisBio (part number 62IPAPEJ). The plate was read on an EnVision XCite plate reader. The HTRF ratio was then calculated from raw data (channel1/channel2 ×10,000) and analyzed using either GraphPad Prism or a custom Python script to calculate IC50 using Log[Antagonist] vs. response (4 parameter) nonlinear regression.

[2] = biological target: T1, Mas-related G-protein coupled receptor member X2; assay: LAD2 Degranulation Assay (Protocol 2)
Experimental: LAD-2 cells were maintained at 37 °C with 5% CO2 and grown in complete StemPro-34 media supplemented with 1% L-Glutamate, 1% penicillin/streptomycin, and 250 ng/mL human SCF. 18-24 hours prior to experiment, LAD-2 cells were collected and transferred to growth media without SCF. […] For dose-response assays, compounds solubilized in 100% DMSO at 30 mM were serially diluted (1:3) first in 100% DMSO, and 2 intermediate dilutions with assay buffer were used to establish a final top concentration of 3 ^M (in assay plate). […] Final DMSO concentration was kept constant at 0.1% across plates for all assays. Cortistatin-14 at 30 mM stock concentration was solubilized in HBSS + 0.1% BSA, stored at -20°C in 5 ^L aliquots and discarded after one freeze-thaw cycle. Final concentration of agonist used in both dose-response and single point assays was 0.5 ^M, prepared in assay buffer. Antagonist equilibrium was established with 2 h preincubation, followed by no wash, direct addition, and stimulation of agonist for 30 minutes at 37 °C. For detection of ^-hexosaminidase activity, assay plates were centrifuged and 5 ^L of cell-free supernatant from each assay well was transferred to a black-walled black-bottomed 384-well plate. Substrate solution (1 mM 4-Methylumbelliferyl N-acetyl-β-D-glucosaminide in citrate buffer, pH=4.5, 15 ^l) was added to each well and plates were incubated for 1 hour at 37 °C. […] Background-subtracted data was analyzed using either GraphPad Prism or a custom Python script to calculate IC50 using either Log[Antagonist] vs. response (4 parameter) nonlinear regression (dose-response assays).

[3] = biological target: T1, Mas-related G-protein coupled receptor member X2; assay: LAD2 Degranulation Assay (Protocol 1)
Experimental: LAD-2 cells were maintained at 37 °C with 5% CO2 and grown in complete StemPro-34 media supplemented with 1% L-Glutamate, 1% penicillin/streptomycin, and 250 ng/mL human SCF. On the day of experiment, cells were collected by centrifugation and seeded in 384-well assay plates, at 4,000 cells per well in 10 ^l freshly made assay buffer (10 mM HEPES, 130 mM NaCl, 5 mM KCl, 1.8 mM CaCl2, 1.0 mM MgCl2, 5.6 mM glucose, 0.1% BSA, pH = 7.40). For dose-response assays, compounds solubilized in 100% DMSO at 30 mM were serially diluted (1:3) first in 100% DMSO, and 2 intermediate dilutions with assay buffer were used to establish a final top concentration of 3 ^M (in assay plate). Final DMSO concentration was kept constant at 0.1% across plates for all assays. Cortistatin-14 at 30 mM stock concentration was solubilized in HBSS + 0.1% BSA, stored at -20°C in 5 ^L aliquots and discarded after one freeze-thaw cycle. Final concentration of agonist used in both dose-response and single point assays was 1 ^M, prepared in assay buffer. Antagonist equilibrium was established with 30 minute preincubation, followed by no wash, direct addition, and stimulation of agonist for 30 minutes at 37 °C. For detection of ^-hexosaminidase activity, assay plates were centrifuged and 5 ^l of cell-free supernatant from each assay well was transferred to a black-walled black-bottomed 384-well plate. Substrate solution (1 mM 4-Methylumbelliferyl N-acetyl-β-D-glucosaminide in citrate buffer, pH=4.5, 15 ^l) was added to each well and plates were incubated for 1 hour at 37 °C. […] Background-subtracted data was analyzed using either GraphPad Prism or a custom Python script to calculate IC50 using either Log[Antagonist] vs. response (4 parameter) nonlinear regression (dose-response assays).

Row | Structure (SMILES) | IC50 [1] [nM] | IC50 [2] [nM] | IC50 [3] [nM]
1 | C[C@@H](C(=O)Nc1nc2cc3c(cc2s1)OC(F)(F)O3)N1CCC(F)(F)[C@H](c2cc[n+]([O-])c([C@H](O)CO)c2)C1 [WO2025064535, Compound 54] | 7.8 | 6.6 | 
2 | C[C@@H](C(=O)Nc1nc2cc3c(cc2s1)CCC3)N1CCC(F)(F)[C@H](c2ccc(=O)[nH]c2)C1 [WO2025064535, Compound 28] | 18 | 144 | 
3 | CNCc1cc([C@@H]2CN([C@@H](C)C(=O)Nc3nc4cc5c(cc4s3)OC(F)(F)O5)CCC2(F)F)c[nH]c1=O [WO2025064535, Compound 87] | 41 |  | 223
4 | C[C@@H](C(=O)Nc1nc2cc3c(cc2s1)OC(F)(F)O3)N1CC[C@H](F)[C@@H](c2cc[n+]([O-])cc2)C1 [WO2025064535, Compound 38] | 32 | 72 | 
5 | C[C@@H](C(=O)Nc1nc2cc3c(cc2s1)OC(F)(F)O3)N1CCC(F)(F)[C@H](c2c[nH]c(=O)c(CO)c2)C1 [WO2025064535, Compound 89] | 30 | 66 | 215
6 | C[C@@H](C(=O)Nc1nc2cc3c(cc2s1)OCCO3)N1CCC(F)(F)[C@H](c2c[nH]c(=O)cn2)C1 [WO2025064535, Compound 41] | 5.9 | 23 | 
7 | C[C@H](C(=O)Nc1nc2cc3c(cc2s1)OCO3)N1CCC(F)(F)[C@@H](c2cc[n+]([O-])cc2)C1 [WO2025064535, Compound 81] | 3.7 |  | 12
8 | C[C@@H](C(=O)Nc1nc2cc3c(cc2s1)OC(F)(F)O3)N1CCC[C@@H](c2cc[n+]([O-])cc2)C1 [WO2025064535, Compound 49] | > 30000 | > 3000 | 
9 | C[C@@H](C(=O)Nc1nc2cc3c(cc2s1)CCC3)N1CCC(F)(F)[C@H](c2c[nH]c(=O)c(CO)c2)C1 [WO2025064535, Compound 107] | 49 | 101 | 586
10 | CNCc1cc([C@@H]2CN([C@@H](C)C(=O)Nc3nc4cc5c(cc4s3)OC(F)(F)O5)CCC2(F)F)cc[n+]1[O-] [WO2025064535, Compound 102] | 87 |  | 346
11 | CNCc1cc([C@H]2CN([C@@H](C)C(=O)Nc3nc4cc5c(cc4s3)OC(F)(F)O5)CCC2(F)F)c[nH]c1=O [WO2025064535, Compound 86] | > 30000 |  | > 3000
12 | C[C@@H](C(=O)Nc1nc2cc3c(cc2s1)OC(F)(F)O3)N1CCC(F)(F)[C@H](c2c[nH]c(=O)c(CO)n2)C1 [WO2025064535, Compound 91] | 36 | 68 | 233
13 | C[C@@H](C(=O)Nc1nc2cc3c(cc2s1)OC(F)(F)O3)N1CCC(F)(F)[C@@H](c2c[nH]c(=O)cn2)C1 [WO2025064535, Compound 34] | 14 | 52 | 
14 | C[C@@H](C(=O)Nc1nc2cc3c(cc2s1)OC(F)(F)O3)N1CCC(F)(F)[C@@H](c2c[nH]c(=O)c(CO)n2)C1 [WO2025064535, Compound 90] | > 17300 |  | > 3000
15 | C[C@@H](C(=O)Nc1nc2cc3c(cc2s1)OC(F)(F)O3)N1CCC(F)(F)[C@@H](c2c[nH]c(=O)c(CO)c2)C1 [WO2025064535, Compound 88] | 1940 |  | > 3000
16 | C[C@@H](C(=O)Nc1nc2cc3c(cc2s1)OC(F)(F)O3)N1CCC(F)(F)[C@H](c2c[nH]c(=O)c([C@@H](O)CO)c2)C1 [WO2025064535, Compound 43] | 11 | 7.4 | 
17 | C[C@@H](C(=O)Nc1nc2cc3c(cc2s1)OC(F)(F)O3)N1CCC(F)(F)[C@H](c2ccc(=O)[nH]c2)C1 [WO2025064535, Compound 32] | 15 | 27 | 
18 | C[C@@H](C(=O)Nc1nc2cc3c(cc2s1)OC(F)(F)O3)N1CCC(F)(F)[C@H](c2c[nH]c(=O)c(CN)c2)C1 [WO2025064535, Compound 85] | 36 | 82 | 130
19 | C[C@@H](C(=O)Nc1nc2cc3c(cc2s1)OCCO3)N1CCC(F)(F)[C@@H](c2ccc(=O)[nH]c2)C1 [WO2025064535, Compound 29] | 8.6 | 20 | 
